Measurements reported in ChEMBL document CHEMBL1143191, “The synthesis and biological evaluation of a range of novel functionalized benzopyrans as potential potassium channel activators” (2008).

Key:
Format in all cases: functional, Thorax
Thoracic [1] = experiment: Vasorelaxation activity against phenylephrine-stimulated contraction in rat thoracic tissue assessed as time taken for relaxation at 40 uM
Thoracic [2] = experiment: Vasorelaxation activity against phenylephrine-stimulated contraction in rat thoracic tissue at 40 uM; design: scale not given: the % may be the effect or the level left
Thoracic [3] = experiment: Vasorelaxation activity against phenylephrine-stimulated contraction in rat thoracic tissue assessed as time taken for relaxation at 10 uM
Thoracic [4] = experiment: Vasorelaxation activity against phenylephrine-stimulated contraction in rat thoracic tissue at 10 uM; design: scale not given: the % may be the effect or the level left
Thoracic [5] = experiment: Vasorelaxation activity against phenylephrine-stimulated contraction in rat thoracic tissue at 1 uM; design: scale not given: the % may be the effect or the level left
Thoracic [6] = experiment: Vasorelaxation activity against phenylephrine-stimulated contraction in rat thoracic tissue at 20 uM in presence of glibenclamide; design: scale not given: the % may be the effect or the level left

| SMILES | Time (Thoracic [1]) [min] | Activity (Thoracic [2]) [%] | Time (Thoracic [3]) [min] | Activity (Thoracic [4]) [%] | Activity (Thoracic [5]) [%] | Activity (Thoracic [6]) [%] |
| --- | --- | --- | --- | --- | --- | --- |
| CC(C)(F)[C@@H]1COc2c(F)cc(F)cc2C1C#Cc1ccccc1 (single isomer, unassigned) | 24 | 65 | 41 | 20 |  |  |
| CC1(C)Oc2ccc(C#N)cc2[C@@H](N2CCCC2=O)[C@@H]1O [CROMAKALIM] |  |  |  | 72 | 56 |  |
| CC(C)(F)[C@@H]1COc2ccc(F)cc2C1C#Cc1ccccc1 (single isomer, unassigned) | 33 | 83 | 55 | 36 |  | 44 |
| CC(C)(F)[C@@H]1COc2ccc([N+](=O)[O-])cc2C1C#Cc1ccccc1 (single isomer, unassigned) | 30 | 88 | 40 | 43 |  | 30 |
| CC(C)(F)[C@@H]1COc2c(F)cccc2C1C#Cc1ccccc1 (single isomer, unassigned) | 21 | 92 | 43 | 28 |  | 30 |
